Results reported in ChEMBL document CHEMBL1133289, “The binding of cocaine to cyclodextrins” (Bioorg Med Chem Lett, 2000).

Experiments:
[1] = Binding constant towards Beta-cyclodextrin
[2] = Binding constant towards alpha-cyclodextrin
[3] = (§1) Binding constant towards Beta-cyclodextrin at pH 7.4 in unbuffered water at 25 C in a one-to-one complex
[4] = Binding constant towards gamma-cyclodextrin
[5] = as §1; remark: listed apart in the source

| SMILES | Binding constant [1] [M⁻¹] | Binding constant [2] [M⁻¹] | Kd [3] [mM] | Binding constant [4] [M⁻¹] | Binding constant [5] [M⁻¹] |
| --- | --- | --- | --- | --- | --- |
| CN1[C@@H]2CC[C@H]1C[C@H](OC(=O)c1ccccc1)C2 (stereo in doubt; 8) | 1120 |  |  |  |  |
| CN1[C@@H]2CC[C@H]1C[C@H](OC(=O)c1ccccc1)C2 (stereo in doubt; 9) | 500 |  |  |  |  |
| COC(=O)[C@H]1[C@@H](OC(=O)c2ccccc2)C[C@@H]2CC[C@H]1N2C [COCAINE] |  | < 60 | 1.75 | < 60 | 570 |
